Measured values taken from patent publication US12403114B2, “Cannabinoid acid ester compositions and uses thereof” (EPM (IP), INC., priority 2019, dated 2025).

Tested on: partial meniscectomy/ACL transection rat model of surgical induced osteoarthritis and pain induced incapacitance
Assay: Weight bearing in rat meniscectomy model versus hyaluronate and corticosteroid, Example 6
Format: in vivo
Procedure: Rats were allowed to acclimatize for 1 week, followed by assessment of their weight bearing preference using an incapacitance meter. Unilateral medical meniscectomy and anterior cruciate ligament […] (MMX/ACLT) surgery was performed on the right knee of a subject rat. Weight bearing preference was tested before and after surgery. After 2 weeks, treatments with both intra-articular (1) and. intra-peritoneal (6) administrations of EPM301 began in the EPM301 group. In the hyaluronate (HA) and corticosteroid (CS) groups, a single intra-articular injection was performed 2 weeks after model induction. Weight bearing preference was then assessed 4 and 7 days after the start of therapy.
Wistar Rats (HsdHan female rats 225-249 grams) were acquired from Envigo. The rats were evaluated using an incapacitance tester. They were tested pre-operation, one-week post-operation, two weeks post-operation, prior to injection, 4 and 7 days post injections.
EPM-301 was dissolved in a solution mixture of 1:1:18 EtOH:cremophor:seline to a final concentration of 3.5 mg/mL. Hyaluronic acid (Arthrease, 1% sodium hyaluronate) and Dexamethasone (kem Pharma, Venus, 72, Pol. Ind. Colom II, 08228 Terrassa, Barcelona) were acquired.
Intra-articular (i.a.) injection was carried out with 100 uL and intra-peritoneal (i.p.) injections were carried out with 150 uL. All were injected i.a. in the first day. EPM-301 was injected via i.p. administration on the first day, and for 5 additional days everyday via i.p. administration.
Student's t-test was performed at the last follow-up time to determine effect of the therapy as primary endpoint. The level of significance was 0.05 alpha. ANOVA was used to compare all time points, a post-hob analysis with the Scheffe all comparisons method was performed. Calculations were performed using the Analyze-it Excel add-on function.
The percentage of weight bearing was calculated as the amount of weight born (in grams) on the right hind limb divided by the amount of weight born on the left hind limb. This ratio was expressed as percentage weight bearing. Prior to operation the Rt/Lt weight bearing in both groups was similar. There were 4 animals in the EPM-301 treated group and 8 animals in each of the HA and CS treated groups, with a total of 20 tested subjects.

C=C(C)[C@@H]1CCC(C)=CC1c1c(O)cc(CCCCC)c(C(=O)OC)c1O (some centres unmarked) [EPM-301, cannabidiolic acid methyl ester]
Rt limb weight bearing (following injections, EPM-301 i.a. once plus i.p. 6 days, HA and CS single i.a. injection): 99.1% | weight bearing (immediately prior to injection, two weeks following model induction (baseline before treatment)): 56.6%
